Publication doi:10.1101/2021.07.01.450682v1 (biorxiv, 2021)

T1: PfLPL3 (lysophospholipase 3; recombinant hydrolase domain) (Plasmodium falciparum, UniProt Q8IK68)
T1 sequence (Q8IK68 41-338): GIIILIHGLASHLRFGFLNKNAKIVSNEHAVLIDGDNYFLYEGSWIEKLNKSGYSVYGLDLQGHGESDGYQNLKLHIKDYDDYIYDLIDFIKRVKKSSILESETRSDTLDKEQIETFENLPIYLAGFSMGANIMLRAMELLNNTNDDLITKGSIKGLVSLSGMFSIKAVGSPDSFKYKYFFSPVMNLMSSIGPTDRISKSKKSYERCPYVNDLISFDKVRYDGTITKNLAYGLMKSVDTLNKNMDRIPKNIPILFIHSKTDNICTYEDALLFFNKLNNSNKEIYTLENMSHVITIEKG


Columns and labels:
[1] = biological target: T1, PfLPL3 (lysophospholipase 3; recombinant hydrolase domain); experiment: coupled fluorescent lysophospholipase assay; assay type: biochemical; settings: 16:0 LPC substrate; 50 mM Tris pH 8.0, 5 mM CaCl2; 20 μg enzyme in 200 μl
[2] = substrate: CCCCCCCCCCCCCCCC(=O)OC[C@@H](O)COP(=O)([O-])OCC[N+](C)(C)C; experiment: purified protein; settings: 50 mM Tris pH 8.0, 5 mM CaCl2, 20 μg enzyme

| IC50 [1] [nM] | Molecule | Km [2] [µM] |
| --- | --- | --- |
| 1260 | O=C(CCc1ccccc1)c1ccccc1OCC(O)CN1CCCCC1 (stereo not drawn) [PCB6, MMV009015] |  |
| 920 | CCOc1cc(Br)c(C(C)NC(=O)c2cccc(OC)c2)cc1OCC (stereo not drawn) [PCB7, MMV665796] |  |
|  | PfLPL3 (lysophospholipase 3; recombinant hydrolase domain) (Plasmodium falciparum 3D7) (protein) GIIILIHGLASHLRFGFLNKNAKIVSNEHAVLIDGDNYFLYEGSWIEKLNKSGYSVYGLDLQGHGESDGYQNLKLHIKDYDDYIYDLIDFIKRVKKSSILESETRSDTLDKEQIETFENLPIYLAGFSMGANIMLRAMELLNNTNDDLITKGSIKGLVSLSGMFSIKAVGSPDSFKYKYFFSPVMNLMSSIGPTDRISKSKKSYERCPYVNDLISFDKVRYDGTITKNLAYGLMKSVDTLNKNMDRIPKNIPILFIHSKTDNICTYEDALLFFNKLNNSNKEIYTLENMSHVITIEKG | 49.25 |
